Test systems include SF-295 CNS; LOX IMVI melanoma; MOLT-4 leukemia; SK-MEL-5 melanoma; MDA-MB-435; CAKI-1 renal; M14 melanoma; OVCAR-3 ovarian; EKVX NSCLC; UACC-62 melanoma.
Holding throughout (experiment): inhibition of tumour cell growth, NCI panel, 48 h

Where “and” joins values, the source holds several entries; their conditions need not be identical. Identical values can stand only once.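 Briefly, cells in 96-well plates were exposed to five compound concentrations for 48 h, and endpoints were estimated by linear interpolation. GI50: concentration for 50% inhibition of growth. TGI: concentration producing complete growth inhibition.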

For the compound `Cc1nc2ccccc2c(/C=C/c2ccc(Cl)cc2)c1C(=O)/C=C/c1ccc(C(F)(F)F)cc1`, the GI50 in the experiment with SF-295 CNS was 1.47 µM; with LOX IMVI melanoma, 0.181 µM; with MOLT-4 leukemia, 0.332 µM; in the experiment on SK-MEL-5 melanoma it was 1.34 µM; in the experiment on MDA-MB-435, 0.243 µM; in the experiment with CAKI-1 renal, 0.386 µM. Moreover, the GI50 with M14 melanoma was 0.41 µM; in the experiment with OVCAR-3 ovarian it was 0.292 µM; in the experiment with EKVX NSCLC it was 0.865 µM; in the experiment on UACC-62 melanoma, 0.939 µM. Besides, the TGI in the experiment on SF-295 CNS is 2.79 µM; in the experiment on LOX IMVI melanoma, 0.361 µM; in the experiment on MOLT-4 leukemia it was greater than 100 µM; in the experiment with SK-MEL-5 melanoma it was 2.63 µM; in the experiment on MDA-MB-435, 0.655 µM; with CAKI-1 renal, 1.52 µM. Also, the TGI turned out to be 1.88 µM in the experiment on M14 melanoma, 0.82 µM in the experiment with OVCAR-3 ovarian, 2.31 µM in the experiment with EKVX NSCLC and 2.29 µM in the experiment on UACC-62 melanoma.
As to `COc1cc(C(=O)N2CCN(c3ncnc4ccccc34)CC2)c(N)cc1OCc1ccccc1`, the GI50 in the experiment on SF-295 CNS is 12.8 µM; in the experiment with LOX IMVI melanoma it was 12.2 µM; in the experiment with MOLT-4 leukemia it was 8.55 µM; in the experiment on SK-MEL-5 melanoma it was 11.1 µM; in the experiment on MDA-MB-435, 13.1 µM; in the experiment with CAKI-1 renal, 5.73 µM. For the same compound, the GI50 with M14 melanoma is 15.2 µM; with OVCAR-3 ovarian it was 11.8 µM; in the experiment with EKVX NSCLC it was 22.5 µM; in the experiment with UACC-62 melanoma, 12 µM. Besides, the TGI with SF-295 CNS was determined as 27.8 µM; with LOX IMVI melanoma, 24.6 µM; in the experiment with MOLT-4 leukemia, 40.4 µM; in the experiment on SK-MEL-5 melanoma, 23 µM; with MDA-MB-435 it was 27.4 µM; in the experiment on CAKI-1 renal it was 24.1 µM. The TGI in the experiment on M14 melanoma turned out to be 28.6 µM; in the experiment on OVCAR-3 ovarian, 25 µM; with EKVX NSCLC, 48.5 µM; in the experiment with UACC-62 melanoma, 24.3 µM.
For the compound `O=c1[nH]c(=S)[nH]c2c1CN(CCCN1CCOCC1)CN2`, the TGI with SF-295 CNS is greater than 100 µM; in the experiment with LOX IMVI melanoma, 62.4 µM; with MOLT-4 leukemia, 83 µM; in the experiment on SK-MEL-5 melanoma, greater than 100 µM; with MDA-MB-435 it was 69.6 µM; in the experiment with CAKI-1 renal it was greater than 100 µM. The TGI in the experiment with M14 melanoma was 59.6 µM; in the experiment on OVCAR-3 ovarian, greater than 100 µM; in the experiment with EKVX NSCLC, greater than 100 µM; with UACC-62 melanoma it was 37.3 µM.
For the compound `Cc1nc(-c2cn3c(n2)-c2ccc(-c4cnn(C(C)(C)C(N)=O)c4)cc2OCC3)n(C(C)C)n1`, the GI50 with SF-295 CNS was 0.894 µM and 0.838 µM; in the experiment with LOX IMVI melanoma, 0.279 µM and 0.74 µM; with MOLT-4 leukemia, 0.136 µM and 0.282 µM; in the experiment with SK-MEL-5 melanoma, 4.1 µM and 2.79 µM; with MDA-MB-435 it was 2.31 µM and 2.67 µM; in the experiment on CAKI-1 renal, 1 µM and 1.2 µM. The GI50 is 3.24 µM and 3.57 µM in the experiment with M14 melanoma; 0.876 µM and 0.582 µM with OVCAR-3 ovarian; 1.48 µM in the experiment on EKVX NSCLC; 0.321 µM and 0.246 µM in the experiment with UACC-62 melanoma. The TGI with SF-295 CNS is 16.7 µM and > 10 µM; in the experiment with LOX IMVI melanoma, 17.7 µM and > 10 µM; with MOLT-4 leukemia, 22.8 µM and > 10 µM; in the experiment on SK-MEL-5 melanoma it was 17.2 µM and > 10 µM; in the experiment on MDA-MB-435, 26.2 µM and > 10 µM; with CAKI-1 renal, greater than 100 µM. In addition, the TGI is 26 µM and > 10 µM in the experiment on M14 melanoma; 16.6 µM and > 10 µM in the experiment with OVCAR-3 ovarian; greater than 10 µM with EKVX NSCLC; 3.64 µM and 4.39 µM in the experiment with UACC-62 melanoma.
For the compound `N=c1ccn(O)cc1/C=C1/C(=O)Nc2ccccc21`, the GI50 with SF-295 CNS, in the experiment with LOX IMVI melanoma, in the experiment on MOLT-4 leukemia, with SK-MEL-5 melanoma, with MDA-MB-435 and in the experiment with CAKI-1 renal was greater than 100 µM each time. For the same compound, the GI50 in the experiment with M14 melanoma, in the experiment on OVCAR-3 ovarian, in the experiment with EKVX NSCLC and in the experiment on UACC-62 melanoma was greater than 100 µM each time. Besides, the TGI in the experiment on SF-295 CNS, in the experiment on LOX IMVI melanoma, with MOLT-4 leukemia, with SK-MEL-5 melanoma, in the experiment on MDA-MB-435 and in the experiment with CAKI-1 renal was greater than 100 µM each time. For the same compound, the TGI in the experiment with M14 melanoma, in the experiment on OVCAR-3 ovarian, in the experiment with EKVX NSCLC and in the experiment on UACC-62 melanoma was greater than 100 µM in each case.

The values are drawn from PubChem BioAssay (NCI).
